Values after ≈ are worked out from the molar mass of the structure shown.

Usually kinetic solubility stands for solubility judged after dilution from a stock solution rather than from solid.

The conditions of this data set: buffer; pH 7.4; 200.0 µM.
On to `COc1cccc(N2CCN(c3nc(C)c(C)c(=O)[nH]3)CC2)c1`, for which the kinetic solubility came to 25.9 µg/mL (≈ 82.4 µM).

Consider `COc1ccc2c(c1)-c1nc(/N=C/c3c(O)ccc4ccccc34)sc1CC2`, for which the solubility (kinetic) came to 27.1 µg/mL (≈ 70.1 µM).

`Cc1ccc(CC(=O)Nc2cc(C)ccn2)cc1` showed a solubility (kinetic) above 36 µg/mL.

As for `Cc1cc(C)c(C)c(OCC(=O)O/N=C(\N)c2ccncc2)c1`, the solubility (kinetic) was determined as 28.5 µg/mL (≈ 91 µM).

`Cc1c(Cl)cccc1NC(=S)Nc1ccccn1` yielded a kinetic solubility of 1 µg/mL (≈ 3.6 µM).

Consider `NS(=O)(=O)c1ccc(NC(=O)COC(=O)c2ccc(S(=O)(=O)N3CCOCC3)cc2)cc1`, for which the solubility (kinetic) came out at 13 µg/mL (≈ 26.9 µM).

`O=C1CCCCC1Sc1ccc(Cl)cc1[N+](=O)[O-]` (configuration not stated) gave a solubility (kinetic) of 40.6 µg/mL (≈ 142 µM).

For `CCCOc1ccc(NC(=O)c2cc3cc(C)ccc3[nH]2)cc1`, the solubility (kinetic) was below 0.3 µg/mL.

`COc1ccc(NC(=S)N2CCN(C)CC2)cc1`: the kinetic solubility was above 39.8 µg/mL.

The molecule `CC(=O)Nc1ccc(SCC(=O)N(C)CC(=O)Nc2ccccc2Cl)cc1` registered a kinetic solubility above 60.9 µg/mL.

The molecule `CC(NC(=O)c1ccco1)C12CC3CC(CC(C3)C1)C2` (configuration not stated) returned a kinetic solubility above 41 µg/mL.

In the case of `Cc1nnc(NS(=O)(=O)c2ccc(N)cc2)s1`, the solubility (kinetic) was above 40.5 µg/mL.

Consider `Cc1ccc(NC(=O)COC(=O)c2cccnc2)c(C)c1`, for which the solubility (kinetic) is above 42.6 µg/mL.

In turn, `COC(=O)c1c(C)[nH]c(C(=O)CN2C(=O)C3CC=CCC3C2=O)c1C` (configuration not stated) returned a solubility (kinetic) above 51.7 µg/mL.

For the molecule `N#CCC(=O)Nc1ccc(C(=O)OCC(=O)NC(=O)Nc2ccc3c(c2)OCCO3)cc1`, the kinetic solubility amounted to 10.5 µg/mL (≈ 24 µM).

`COc1cc(CNc2ccc3[nH]c(=O)[nH]c3c2)ccc1OCC(=O)NC(C)(C)C` showed a solubility (kinetic) of 52.3 µg/mL (≈ 131 µM).

Take `CN(C)S(=O)(=O)c1ccc(Cl)c(C(=O)NC2=NCCS2)c1`: the kinetic solubility was above 52.2 µg/mL.

Turning to `O=C(Nc1ccncc1)C1CC(=O)N(c2ccc(F)cc2)C1` (configuration not stated), the kinetic solubility is 39.3 µg/mL (≈ 131 µM).

For the molecule `O=C(Nc1cccc(F)c1)Nc1ccc(Cl)cn1`, the solubility (kinetic) was below 0.2 µg/mL.

Turning to `COc1ccc(NC(=O)c2cnc(SC)nc2)cc1`, the solubility (kinetic) came out at 8.4 µg/mL (≈ 30.5 µM).

Regarding `O=S(=O)(NCc1ccccn1)c1ccc(Cl)c(C(F)(F)F)c1`, the solubility (kinetic) was 16.5 µg/mL (≈ 47 µM).

In turn, `Cc1cc(C(=O)CN2C(=O)NC3(CCCCC3)C2=O)c(C)n1C` showed a kinetic solubility of 19 µg/mL (≈ 59.9 µM).

`CCN(C(=O)COC(=O)c1ccccc1O)c1cccc2ccccc12` showed a solubility (kinetic) of 3.5 µg/mL (≈ 10 µM).

The molecule `Cc1nc(Nc2ccccc2)sc1C(=O)c1ccc(F)cc1` returned a kinetic solubility of 2.4 µg/mL (≈ 7.68 µM).

As for `Cc1cnc(=O)[nH]c1SCc1ccc([N+](=O)[O-])cc1`, the kinetic solubility turned out to be 22.1 µg/mL (≈ 79.7 µM).

For the molecule `Cl.ClCCN1CCN(c2ccnc3cc(Cl)ccc23)CC1`, the kinetic solubility is above 57.5 µg/mL.

Consider `Cc1c(Cl)cccc1NC(=O)NCc1ccccn1`, for which the solubility (kinetic) was found to be 38.5 µg/mL (≈ 140 µM).

Consider `Cc1ccccc1CN1CCc2cc([N+](=O)[O-])ccc21`, for which the kinetic solubility turned out to be 1.9 µg/mL (≈ 7.08 µM).

In turn, `O=C(NC(=S)NCc1ccco1)c1cccc(Cl)c1` displayed a solubility (kinetic) of 2.7 µg/mL (≈ 9.16 µM).

Turning to `O=c1[nH]c(=S)n(C2CC2)c(O)c1C=NCCN1CCOCC1`, the kinetic solubility was above 48.7 µg/mL.

In turn, `CC(C)(O)C#Cc1ccc(C(=O)NC2CCCCC2)s1` returned a kinetic solubility above 43.7 µg/mL.

Turning to `COc1ccccc1/C=C/C(=O)Nc1ccc(N2CCOCC2)cc1`, the solubility (kinetic) worked out at 1 µg/mL (≈ 2.96 µM).

Molecule `CC(C)Sc1cc(Cl)nc(NC(=O)Nc2ccccc2)n1` came in with a kinetic solubility of 0.4 µg/mL (≈ 1.24 µM).

`O=C1c2ccccc2C(=O)N1CCc1ccccc1` came in with a kinetic solubility of 7.8 µg/mL (≈ 31 µM).

`Cc1onc(-c2ccccc2)c1-c1csc(COc2ccccc2)n1` displayed a solubility (kinetic) of 2.2 µg/mL (≈ 6.31 µM).

For the molecule `CCn1cc(CCC(=O)NCCc2ccccc2)c2ccccc21`, the kinetic solubility worked out at 32.8 µg/mL (≈ 102 µM).

As for `CCN1CC2([N+](=O)[O-])CC=C(Cl)C([N+](=O)[O-])(C1)C2` (configuration not stated), the kinetic solubility was determined as 28.4 µg/mL (≈ 103 µM).

For the molecule `O=C(c1cccc([N+](=O)[O-])c1)c1ccc2[nH]c(=O)[nH]c2c1`, the kinetic solubility was determined as 8 µg/mL (≈ 28.2 µM).

As to `CCOC(=O)Cn1c(=O)c(C#N)cn(C(C)C)c1=O`, the solubility (kinetic) is above 39.8 µg/mL.

`Cc1ccc(C(=O)N2CCN(c3ccc(C(F)(F)F)cn3)CC2)o1` had a kinetic solubility of 19.8 µg/mL (≈ 58.4 µM).

The molecule `CC(=O)c1ccc(N2CCN(C(=O)c3cc(S(=O)(=O)N4CCOCC4)ccc3C)CC2)cc1` yielded a kinetic solubility above 70.7 µg/mL.

For the molecule `O=C(Nc1ccc(Br)cc1)N1CCCCCC1`, the solubility (kinetic) worked out at 7.6 µg/mL (≈ 25.6 µM).

`Cc1cc(C(=O)NCC(c2ccco2)N(C)C)ccc1[N+](=O)[O-]` (configuration not stated) yielded a kinetic solubility of 39.7 µg/mL (≈ 125 µM).

Molecule `Nn1c(SCC(=O)NC2CCCc3ccccc32)nnc1C1CC1` (configuration not stated) gave a kinetic solubility above 51.5 µg/mL.

With `Cc1ccc(NC(=O)c2ccc3nccnc3c2)c(C)c1`, the solubility (kinetic) is above 41.6 µg/mL.

Molecule `O=C(NC(=O)c1ccccc1)Nc1ccc(Cl)cn1` displayed a solubility (kinetic) below 0.2 µg/mL.

For the molecule `CCOC(=O)c1cc2cc(OCc3ccccc3)ccc2nc1C`, the kinetic solubility was below 0.7 µg/mL.

For `O=C(O)c1ccc(Cn2ccc3ccccc32)o1`, the solubility (kinetic) is above 36.2 µg/mL.

On to `COc1ccc(C(=O)Nc2ccc3[nH]ccc3c2)cc1`, for which the kinetic solubility was above 39.9 µg/mL.

`CC(C)(C)C(=O)NC(=S)N1CCc2ccccc21` displayed a kinetic solubility of 31 µg/mL (≈ 118 µM).

Molecule `CCNC(=S)N1CCN(S(=O)(=O)c2ccc(Cl)s2)CC1` showed a solubility (kinetic) of 31.4 µg/mL (≈ 88.7 µM).

In turn, `COc1ccccc1C(=O)NCCC(=O)N1CCCC(C(F)(F)F)C1` (configuration not stated) had a solubility (kinetic) of 52.3 µg/mL (≈ 146 µM).
